“And” between values parts separate entries of the source, which are not always exact repeats. Identical values can stand only once. Values belong to the compound of their own block, whether it stands above or below them. The source made the active and inactive calls.
How the values were obtained:
[1] = biological target: T1, Delta-type opioid receptor (Homo sapiens, UniProt P41143); test: HTS Image-Based Screen for Agonists of the DOR Receptor. [Related pubchem assays (depositor defined):AID1777, AID1786, AID2133]; type: functional
T1 sequence (P41143 whole entry): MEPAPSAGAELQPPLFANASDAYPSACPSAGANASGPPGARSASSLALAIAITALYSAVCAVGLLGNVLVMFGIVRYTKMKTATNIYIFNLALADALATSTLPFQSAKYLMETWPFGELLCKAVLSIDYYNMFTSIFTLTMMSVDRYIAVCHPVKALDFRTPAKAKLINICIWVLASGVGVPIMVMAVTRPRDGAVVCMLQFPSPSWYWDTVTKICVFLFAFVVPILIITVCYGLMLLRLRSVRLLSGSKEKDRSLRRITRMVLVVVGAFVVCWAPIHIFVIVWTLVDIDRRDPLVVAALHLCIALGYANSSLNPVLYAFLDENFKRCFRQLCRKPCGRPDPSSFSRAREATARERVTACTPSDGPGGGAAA

Estrogen receptor = Estrogen receptor (Homo sapiens, UniProt P03372);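 further: potency for inhibiting coactivator peptide recruitment to the receptor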
Sequence of Estrogen receptor (P03372 whole entry): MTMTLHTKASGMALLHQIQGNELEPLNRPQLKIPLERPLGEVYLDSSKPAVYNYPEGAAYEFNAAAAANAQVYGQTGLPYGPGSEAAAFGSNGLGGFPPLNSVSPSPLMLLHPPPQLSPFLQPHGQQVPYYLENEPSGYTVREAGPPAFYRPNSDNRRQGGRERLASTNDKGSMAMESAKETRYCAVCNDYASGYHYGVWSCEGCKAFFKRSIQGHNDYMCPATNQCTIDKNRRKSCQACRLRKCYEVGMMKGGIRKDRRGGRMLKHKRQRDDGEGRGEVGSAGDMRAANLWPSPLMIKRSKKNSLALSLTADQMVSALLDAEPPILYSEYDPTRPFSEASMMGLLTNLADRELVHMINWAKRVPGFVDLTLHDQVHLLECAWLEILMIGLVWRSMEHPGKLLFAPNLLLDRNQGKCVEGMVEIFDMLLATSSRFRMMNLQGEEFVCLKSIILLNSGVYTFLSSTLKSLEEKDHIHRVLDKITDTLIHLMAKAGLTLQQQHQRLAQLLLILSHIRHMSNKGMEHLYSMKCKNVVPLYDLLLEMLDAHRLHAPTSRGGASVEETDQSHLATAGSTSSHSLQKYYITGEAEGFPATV

Estrogen receptor beta [2] = biological target: T2, Estrogen receptor beta (Homo sapiens, UniProt Q92731);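 further: recombinant ER-beta bound to coactivator SRC1 peptide in presence of estradiol agonist; inhibitors block coactivator peptide binding and lower the FRET signal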
T2 sequence (Q92731 whole entry): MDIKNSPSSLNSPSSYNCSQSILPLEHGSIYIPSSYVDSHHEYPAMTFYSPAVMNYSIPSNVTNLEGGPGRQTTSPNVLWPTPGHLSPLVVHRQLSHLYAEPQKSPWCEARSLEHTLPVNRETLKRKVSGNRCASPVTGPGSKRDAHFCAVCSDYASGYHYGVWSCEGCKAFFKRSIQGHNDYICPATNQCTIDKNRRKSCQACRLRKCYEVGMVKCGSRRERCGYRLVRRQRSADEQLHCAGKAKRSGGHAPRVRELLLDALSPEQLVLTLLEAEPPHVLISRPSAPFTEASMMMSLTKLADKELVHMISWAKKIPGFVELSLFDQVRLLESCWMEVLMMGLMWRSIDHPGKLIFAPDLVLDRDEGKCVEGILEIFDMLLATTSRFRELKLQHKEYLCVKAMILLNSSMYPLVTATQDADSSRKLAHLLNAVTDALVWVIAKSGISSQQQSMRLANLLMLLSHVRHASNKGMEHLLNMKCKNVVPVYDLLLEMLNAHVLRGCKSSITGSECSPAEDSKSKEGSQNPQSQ

Estrogen receptor beta [3] = biological target: T2, Estrogen receptor beta; test: blockers of SRC-3 recruitment to ERβ – biochemical, ELISA, streptavidin-HRP readout, orthogonal assay, confirmation (AID 1060)
[4] = biological target: T1, Delta-type opioid receptor; test: HTS Image-Based Screen for Antagonists of the DOR Receptor. [Related pubchem assays (depositor defined):AID1777, AID1785, AID1786, AID2133]; type: functional
[5] = biological target: T3, Kappa-type opioid receptor (Homo sapiens, UniProt P41145); type: functional
T3 sequence (P41145 whole entry): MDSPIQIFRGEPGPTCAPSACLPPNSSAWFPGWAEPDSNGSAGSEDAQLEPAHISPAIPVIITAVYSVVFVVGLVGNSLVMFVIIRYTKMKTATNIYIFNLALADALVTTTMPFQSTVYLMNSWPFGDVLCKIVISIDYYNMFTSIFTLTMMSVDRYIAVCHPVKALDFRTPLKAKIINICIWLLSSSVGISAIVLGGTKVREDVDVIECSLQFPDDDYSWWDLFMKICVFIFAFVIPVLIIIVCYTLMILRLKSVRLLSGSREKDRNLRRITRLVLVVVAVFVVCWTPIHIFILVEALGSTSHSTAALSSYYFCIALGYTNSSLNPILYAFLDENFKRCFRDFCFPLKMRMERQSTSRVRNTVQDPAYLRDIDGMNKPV

Mu-type opioid receptor = Mu-type opioid receptor (Homo sapiens, UniProt P35372); test: HTS Image-Based Screen for Agonists of the MOR Receptor. [Related pubchem assays (depositor defined):AID1777, AID1785, AID1786, AID2133]; type: functional;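 further: imaging of beta-arrestin GFP recruitment into spots after receptor activation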
Sequence of Mu-type opioid receptor (P35372 whole entry): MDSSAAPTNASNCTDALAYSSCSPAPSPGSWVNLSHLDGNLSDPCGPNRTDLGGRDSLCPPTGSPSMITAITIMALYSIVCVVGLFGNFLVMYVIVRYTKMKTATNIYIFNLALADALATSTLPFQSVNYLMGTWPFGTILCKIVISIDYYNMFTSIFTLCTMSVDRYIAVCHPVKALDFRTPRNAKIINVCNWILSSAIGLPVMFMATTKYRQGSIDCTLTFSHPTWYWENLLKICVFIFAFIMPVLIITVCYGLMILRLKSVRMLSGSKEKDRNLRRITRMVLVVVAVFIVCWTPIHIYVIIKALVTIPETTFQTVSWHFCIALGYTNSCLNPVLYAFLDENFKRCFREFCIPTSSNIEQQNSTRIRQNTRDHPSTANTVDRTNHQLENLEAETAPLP

[6] = biological target: T3, Kappa-type opioid receptor; type: functional; remark: listed apart in the source
[7] = biological target: T4, Eukaryotic translation initiation factor 2-alpha kinase 3 (Homo sapiens, UniProt Q9NZJ5); test: Counterscreen assay for PERK inhibitors: Dose response cell-based high throughput screening assay to measure inhibition of PERK at 6 hours. [Related pubchem assays: 1522, 1416 ]; type: functional
T4 sequence (Q9NZJ5 whole entry): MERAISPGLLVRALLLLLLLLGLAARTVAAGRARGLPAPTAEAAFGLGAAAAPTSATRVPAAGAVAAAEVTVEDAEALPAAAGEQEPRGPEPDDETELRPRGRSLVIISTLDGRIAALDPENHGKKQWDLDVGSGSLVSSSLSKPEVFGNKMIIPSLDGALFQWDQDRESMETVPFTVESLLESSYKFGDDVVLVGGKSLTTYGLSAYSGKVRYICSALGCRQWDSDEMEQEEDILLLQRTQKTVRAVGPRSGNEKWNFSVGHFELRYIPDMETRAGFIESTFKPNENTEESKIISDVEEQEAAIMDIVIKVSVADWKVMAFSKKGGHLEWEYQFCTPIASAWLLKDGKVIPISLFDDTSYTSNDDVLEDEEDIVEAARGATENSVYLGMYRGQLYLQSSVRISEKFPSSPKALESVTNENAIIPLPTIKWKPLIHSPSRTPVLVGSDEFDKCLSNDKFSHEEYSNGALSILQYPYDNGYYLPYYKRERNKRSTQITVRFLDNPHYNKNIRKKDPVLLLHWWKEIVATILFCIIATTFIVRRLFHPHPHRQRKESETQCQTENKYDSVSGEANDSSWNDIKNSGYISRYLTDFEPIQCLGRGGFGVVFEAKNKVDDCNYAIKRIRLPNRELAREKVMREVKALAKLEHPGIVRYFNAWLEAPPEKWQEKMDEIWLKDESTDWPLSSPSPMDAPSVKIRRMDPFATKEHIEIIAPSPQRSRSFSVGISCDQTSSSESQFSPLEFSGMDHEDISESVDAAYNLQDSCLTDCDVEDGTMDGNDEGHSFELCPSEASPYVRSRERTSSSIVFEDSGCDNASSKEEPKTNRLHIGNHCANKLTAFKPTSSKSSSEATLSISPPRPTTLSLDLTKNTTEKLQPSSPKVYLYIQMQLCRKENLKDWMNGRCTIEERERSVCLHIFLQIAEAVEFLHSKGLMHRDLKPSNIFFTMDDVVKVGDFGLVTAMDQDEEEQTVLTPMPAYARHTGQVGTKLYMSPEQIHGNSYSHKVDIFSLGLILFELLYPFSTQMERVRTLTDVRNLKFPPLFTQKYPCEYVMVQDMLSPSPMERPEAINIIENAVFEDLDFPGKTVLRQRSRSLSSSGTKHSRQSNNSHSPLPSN

[8] = biological target: T4, Eukaryotic translation initiation factor 2-alpha kinase 3; test: Dose response cell-based high-throughput screening assay to measure PERK inhibition. [Related pubchem assays: 1416 ]; type: functional
[9] = biological target: Melanin-concentrating hormone receptor 1 (Homo sapiens, UniProt Q99705); test: Late-stage fluorescence-based counterscreen for antagonists of the G-protein coupled receptor 7 (GPR7): cell-based dose response assay to identify antagonists of the melanin-concentrating hormone receptor 1 (MCHR1). [Related pubchem assays (depositor defined):AID1861, AID1880, AID1952, AID2148, AID2251, AID2257, AID485339]; type: functional;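 further: stimulated with 30 nM MCH peptide agonist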
Sequence of Melanin-concentrating hormone receptor 1 (Q99705 whole entry): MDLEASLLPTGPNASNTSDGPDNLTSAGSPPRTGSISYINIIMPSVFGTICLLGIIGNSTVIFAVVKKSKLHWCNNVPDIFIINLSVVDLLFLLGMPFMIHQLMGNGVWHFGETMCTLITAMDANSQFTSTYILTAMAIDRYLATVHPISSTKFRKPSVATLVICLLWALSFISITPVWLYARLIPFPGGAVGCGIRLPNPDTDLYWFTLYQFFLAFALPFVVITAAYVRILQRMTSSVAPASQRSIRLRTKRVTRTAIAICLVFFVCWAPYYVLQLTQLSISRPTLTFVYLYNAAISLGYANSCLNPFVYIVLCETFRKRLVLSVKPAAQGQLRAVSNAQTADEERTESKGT

Trypanosoma cruzi = test: anti-trypanosomal activity in host cells – cell-based, plate reader, dry powder, set 3, dose response (AID 493197); type: functional
[10] = biological target: T5, Dual specificity protein phosphatase 6 (Rattus norvegicus, UniProt Q64346); type: functional
T5 sequence (Q64346 whole entry): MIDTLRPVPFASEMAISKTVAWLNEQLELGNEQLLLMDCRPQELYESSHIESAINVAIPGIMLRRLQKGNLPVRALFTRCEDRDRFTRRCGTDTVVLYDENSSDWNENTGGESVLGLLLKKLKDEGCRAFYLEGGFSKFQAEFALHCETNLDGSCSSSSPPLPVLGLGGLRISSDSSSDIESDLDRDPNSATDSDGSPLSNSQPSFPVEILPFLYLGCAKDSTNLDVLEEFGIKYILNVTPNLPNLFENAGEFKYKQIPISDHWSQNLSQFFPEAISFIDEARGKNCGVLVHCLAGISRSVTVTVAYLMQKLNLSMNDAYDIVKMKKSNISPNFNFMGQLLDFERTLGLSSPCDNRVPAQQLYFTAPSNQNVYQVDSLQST

[11] = biological target: T6, Tyrosine-protein phosphatase non-receptor type 7 (Homo sapiens, UniProt P35236); type: functional
T6 sequence (P35236 whole entry): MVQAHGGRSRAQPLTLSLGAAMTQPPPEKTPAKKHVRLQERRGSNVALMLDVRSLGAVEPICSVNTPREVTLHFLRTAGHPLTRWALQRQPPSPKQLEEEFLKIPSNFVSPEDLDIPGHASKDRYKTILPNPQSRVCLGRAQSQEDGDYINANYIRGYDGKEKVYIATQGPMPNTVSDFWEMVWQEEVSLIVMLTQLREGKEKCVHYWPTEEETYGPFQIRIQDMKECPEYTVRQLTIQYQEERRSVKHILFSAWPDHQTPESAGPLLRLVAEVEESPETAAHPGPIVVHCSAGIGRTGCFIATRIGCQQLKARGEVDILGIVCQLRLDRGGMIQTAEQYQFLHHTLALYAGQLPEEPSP

[12] = biological target: T5, Dual specificity protein phosphatase 6
[13] = biological target: Glyceraldehyde-3-phosphate dehydrogenase (Homo sapiens, UniProt P04406)
Sequence of Glyceraldehyde-3-phosphate dehydrogenase (P04406 whole entry): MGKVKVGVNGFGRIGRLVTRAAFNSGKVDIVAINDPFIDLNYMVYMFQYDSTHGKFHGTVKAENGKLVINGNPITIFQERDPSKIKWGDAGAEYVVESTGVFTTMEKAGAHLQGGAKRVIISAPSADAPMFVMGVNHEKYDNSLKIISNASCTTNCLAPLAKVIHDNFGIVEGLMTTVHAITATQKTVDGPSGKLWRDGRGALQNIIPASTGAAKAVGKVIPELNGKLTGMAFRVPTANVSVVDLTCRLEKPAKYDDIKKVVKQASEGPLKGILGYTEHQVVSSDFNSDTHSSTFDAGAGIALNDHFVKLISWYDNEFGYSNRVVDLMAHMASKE

EC50 [1]: > 32 µM (inactive)
IC50 (Estrogen receptor): 15 µM (active)
IC50 (Estrogen receptor beta [2]): > 50 µM (not active)
IC50 [4]: > 32 µM (inactive)
EC50 [5]: 16 µM
EC50 (Mu-type opioid receptor): > 32 µM (inactive)
EC50 [6]: > 35 µM
Structure (SMILES): N#Cc1ccc(-c2cccnc2)nc1SCC(=O)Nc1sc2c(c1C#N)CCC2
IC50 (Estrogen receptor beta [3]): 3.69 µM (not active) and 149 nM (not active)

EC50 [7]: > 55.7 µM (not active)
EC50 [8]: > 55.7 µM (not active)
Structure (SMILES): O=C(CCc1ccccc1)NCC(=O)N/N=C/c1ccc(O)cc1O

IC50 [9]: 9.8 µM (active)
Structure (SMILES): COc1ccc(Oc2c(C)cnn(-c3ccc(C(C)C)cc3)c2=O)cc1

Structure (SMILES): COc1ccc(C(C)NC(=O)C2CCN(CCCc3ccccc3)CC2)cc1OC (stereo unspecified)
AC50 (Trypanosoma cruzi): 66.3 µM (active)

IC50 [10]: > 100 µM (inactive)
IC50 [11]: > 100 µM (not active)
IC50 [12]: > 100 µM (inactive)
IC50 [13]: 93.8 µM (active)
Structure (SMILES): Cc1ccc(CC(=O)Nc2cc(C)on2)cc1

Source: ChEMBL document CHEMBL1201862, “PubChem BioAssay data set” (2004)
